Results from patent US20260356804A1, “SODIUM CHANNEL BLOCKING COMPOUNDS, DERIVATIVES THEREOF, AND METHODS OF THEIR USE” (LATIGO BIOTHERAPEUTICS, INC., priority 2022, published 2026).
pIC50: −log10 of the molar value. Counter-ions that a name gives are not always drawn. Like-named read-outs stand apart in the source and are kept apart here.

Molecular target: T1, human Nav1.8/b3 (Homo sapiens, UniProt Q9Y5Y9)
T1 construct: expressed in transfected cells; host or cells: CHO
Experiment: Compound Profiling Human NaV1.8/β3 Cell Line—SyncroPatch384PE Assay (automated patch clamp, stably transfected CHO cells)
Assay type: cell-based
Conditions: Nav1.8/b3 CHO cells

[1] = P1 (IC50, resting state block), P1 measurement, resting state block, holding potential −120 mV, fourth set of compounds
[2] = P2 (IC50, inactivated state block), P2 measurement, inactivated state block, inactivation step −35 mV 10 sec, fourth set of compounds
[3] = P1 (IC50, resting state block), P1 measurement, resting state block, holding potential −120 mV, first set of compounds
[4] = P2 (IC50, inactivated state block), P2 measurement, inactivated state block, inactivation step −35 mV 10 sec, first set of compounds
[5] = P1 (IC50, resting state block), P1 measurement, resting state block, holding potential −120 mV, second set of compounds
[6] = P2 (IC50, inactivated state block), P2 measurement, inactivated state block, inactivation step −35 mV 10 sec, second set of compounds
[7] = P1 (IC50, resting state block), P1 measurement, resting state block, holding potential −120 mV, third set of compounds
[8] = P2 (IC50, inactivated state block), P2 measurement, inactivated state block, inactivation step −35 mV 10 sec, third set of compounds
[9] = P1 measurement, resting state block, holding potential −120 mV, third set of compounds, read-out: P1 (IC50, resting state block)
[10] = P2 measurement, inactivated state block, inactivation step −35 mV 10 sec, third set of compounds, read-out: P2 (IC50, inactivated state block)

T1 sequence (Q9Y5Y9 whole entry): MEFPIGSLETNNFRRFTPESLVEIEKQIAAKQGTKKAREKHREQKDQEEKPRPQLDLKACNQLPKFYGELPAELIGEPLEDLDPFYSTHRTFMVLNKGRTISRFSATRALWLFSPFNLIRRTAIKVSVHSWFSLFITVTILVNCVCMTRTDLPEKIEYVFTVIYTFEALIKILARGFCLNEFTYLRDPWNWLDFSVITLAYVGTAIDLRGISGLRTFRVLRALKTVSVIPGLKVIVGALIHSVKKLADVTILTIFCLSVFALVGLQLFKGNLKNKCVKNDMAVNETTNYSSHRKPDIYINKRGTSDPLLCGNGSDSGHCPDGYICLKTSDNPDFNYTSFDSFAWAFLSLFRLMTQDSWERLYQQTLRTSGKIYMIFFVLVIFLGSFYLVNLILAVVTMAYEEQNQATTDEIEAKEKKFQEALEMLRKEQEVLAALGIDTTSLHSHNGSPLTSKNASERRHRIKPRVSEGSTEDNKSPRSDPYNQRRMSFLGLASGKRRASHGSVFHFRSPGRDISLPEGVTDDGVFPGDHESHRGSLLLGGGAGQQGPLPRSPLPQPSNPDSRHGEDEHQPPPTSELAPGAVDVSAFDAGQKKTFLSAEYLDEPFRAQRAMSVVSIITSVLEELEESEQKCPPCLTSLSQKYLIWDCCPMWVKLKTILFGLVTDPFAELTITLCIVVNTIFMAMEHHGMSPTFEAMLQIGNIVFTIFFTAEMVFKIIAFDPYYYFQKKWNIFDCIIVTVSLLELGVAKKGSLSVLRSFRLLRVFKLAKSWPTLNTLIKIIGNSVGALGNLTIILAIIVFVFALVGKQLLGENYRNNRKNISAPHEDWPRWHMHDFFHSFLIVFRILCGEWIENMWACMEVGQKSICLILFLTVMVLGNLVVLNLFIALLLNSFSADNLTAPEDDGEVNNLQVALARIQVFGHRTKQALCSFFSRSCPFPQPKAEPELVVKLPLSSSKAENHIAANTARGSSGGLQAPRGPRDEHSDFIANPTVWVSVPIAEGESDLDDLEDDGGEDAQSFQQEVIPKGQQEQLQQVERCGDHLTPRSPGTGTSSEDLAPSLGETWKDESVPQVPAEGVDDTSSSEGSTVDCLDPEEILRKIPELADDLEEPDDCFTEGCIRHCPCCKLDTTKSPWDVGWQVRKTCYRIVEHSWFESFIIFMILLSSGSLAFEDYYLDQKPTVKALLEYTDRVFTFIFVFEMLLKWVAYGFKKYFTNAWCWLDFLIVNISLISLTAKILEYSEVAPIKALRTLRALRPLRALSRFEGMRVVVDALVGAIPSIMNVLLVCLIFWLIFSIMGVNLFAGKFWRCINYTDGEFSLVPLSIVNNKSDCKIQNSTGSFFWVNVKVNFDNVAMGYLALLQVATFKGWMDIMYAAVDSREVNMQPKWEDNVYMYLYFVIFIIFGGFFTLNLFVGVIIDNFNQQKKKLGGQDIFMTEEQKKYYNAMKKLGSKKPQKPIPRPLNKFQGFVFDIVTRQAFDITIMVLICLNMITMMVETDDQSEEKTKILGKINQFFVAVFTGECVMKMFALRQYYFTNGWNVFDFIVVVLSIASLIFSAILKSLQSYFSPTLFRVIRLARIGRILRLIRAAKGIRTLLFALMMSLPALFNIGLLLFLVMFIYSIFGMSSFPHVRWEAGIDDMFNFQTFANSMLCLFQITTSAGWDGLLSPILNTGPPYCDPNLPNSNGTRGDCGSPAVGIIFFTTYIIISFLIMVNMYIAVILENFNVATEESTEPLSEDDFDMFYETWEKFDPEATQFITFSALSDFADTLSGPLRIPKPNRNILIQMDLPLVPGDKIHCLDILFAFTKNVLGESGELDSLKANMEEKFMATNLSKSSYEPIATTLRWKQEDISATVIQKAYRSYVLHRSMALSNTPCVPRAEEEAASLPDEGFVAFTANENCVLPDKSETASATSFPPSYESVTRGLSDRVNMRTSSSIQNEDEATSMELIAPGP
T1 sequence (Q9NY72 23-215 partner): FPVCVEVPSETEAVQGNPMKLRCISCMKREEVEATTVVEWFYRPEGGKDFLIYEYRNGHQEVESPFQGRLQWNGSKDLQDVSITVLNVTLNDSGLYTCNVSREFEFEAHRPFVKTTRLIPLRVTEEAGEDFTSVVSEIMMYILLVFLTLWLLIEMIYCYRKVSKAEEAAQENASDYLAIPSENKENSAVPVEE

SMILES: CNCC(=O)N=[S@](C)(=O)c1cccc(NC(=O)c2c(Oc3ccc(F)nc3C)ncc(C(F)(F)F)c2C)c1 [Example 1D, (R)-2-((6-fluoro-2-methylpyridin-3-yl)oxy)-4-methyl-N-(3-(S-methyl-N-(methylglycyl)sulfonimidoyl)phenyl)-5-(trifluoromethyl)nicotinamide]
- pIC50 [1]: > 8.30
- pIC50 [2]: > 8.30

SMILES: Cc1nc(F)ccc1Oc1cc(C(F)(F)F)c(Cl)cc1C(=O)Nc1cccc([S@](C)(=N)=O)c1 [Example 1A, (R)-5-chloro-2-((6-fluoro-2-methylpyridin-3-yl)oxy)-N-(3-(S-methylsulfonimidoyl)phenyl)-4-(trifluoromethyl)benzamide]
- pIC50 [3]: > 8.30
- pIC50 [4]: > 8.30

SMILES: Cc1nc(F)ccc1Oc1ccc(C(F)(F)F)c(C)c1C(=O)Nc1cccc([S@@](C)(=O)=NC(=O)[C@@H](C)O)c1 [Example 28B]
- pIC50 [5]: > 8.30
- pIC50 [6]: > 8.30

SMILES: Cc1nc(F)ccc1Oc1cc(C(F)(F)F)ccc1C(=O)Nc1cccc([S@@](C)(=O)=NC(=O)[C@@H]2CCCN2)c1 [Example 8B, (S)—N—((R)-(3-(2-((6-fluoro-2-methylpyridin-3-yl)oxy)-4-(trifluoromethyl)benzamido)phenyl)(methyl)(oxo)-λ^6-sulfaneylidene)pyrrolidine-2-carboxamide formate]
- pIC50 (P1 measurement, resting state block, holding potential −120 mV, second set of compounds, read-out: P1 (IC50, resting state block)): > 8.30
- pIC50 (P2 measurement, inactivated state block, inactivation step −35 mV 10 sec, second set of compounds, read-out: P2 (IC50, inactivated state block)): > 8.30

SMILES: Cc1nc(F)ccc1Oc1ncc(C(F)(F)F)c(C)c1C(=O)Nc1ccnc([S@](C)(=N)=O)c1 (single isomer, unassigned) [Example 11C]
- pIC50 [7]: 7.30 to 8.30
- pIC50 [8]: 7.30 to 8.30

SMILES: Cc1nc(F)ccc1Oc1ncc(C(F)(F)F)c(C)c1C(=O)Nc1cccc([S@@](C)(=O)=NC(=O)C(N)C(F)(F)F)c1 (stereo partly drawn) [Example 11D, N-(3-((R)—N-(2-amino-3,3,3-trifluoropropanoyl)-S-methylsulfonimidoyl)phenyl)-2-((6-fluoro-2-methylpyridin-3-yl)oxy)-4-methyl-5-(trifluoromethyl)nicotinamide]
- pIC50 [1]: > 8.30
- pIC50 [2]: > 8.30

SMILES: Cc1nc(F)ccc1Oc1cc(C2CC2)c(C(F)(F)F)cc1C(=O)Nc1ccnc([S@@](C)(=N)=O)c1 [Example 57A]
- pIC50 [3]: > 8.30
- pIC50 [4]: 7.30 to 8.30

SMILES: Cc1nc(F)ccc1Oc1ncc(C(F)F)c(C)c1C(=O)Nc1ccnc([S@@](C)(=N)=O)c1 [Example 114C]
- pIC50 [7]: < 6.70
- pIC50 [8]: < 6.70

SMILES: Cc1nc(F)ccc1Oc1ncc(C(F)(F)F)c(C)c1C(=O)Nc1ccnc([S@@](C)(=N)=O)c1 (single isomer, unassigned) [Example 10C]
- pIC50 [7]: 7.30 to 8.30
- pIC50 [8]: 7.30 to 8.30

SMILES: COc1cc(C#N)ccc1Oc1ncc(-c2ccc(C(F)F)cc2)c(C)c1C(=O)Nc1ccnc([S@@](C)(=N)=O)c1 [Example 16C, (S)-2-(4-cyano-2-methoxyphenoxy)-5-(4-(difluoromethyl)phenyl)-4-methyl-N-(2-(S-methylsulfonimidoyl)pyridin-4-yl)nicotinamide]
- pIC50 [7]: < 6.70
- pIC50 [8]: < 6.70

SMILES: Cc1nc(F)ccc1Oc1cc(C(F)(F)F)ccc1C(=O)Nc1cccc([S@@](C)(=O)=NC(=O)CO)c1 [Example 11B, (R)-2-((6-fluoro-2-methylpyridin-3-yl)oxy)-N-(3-(N-(2-hydroxyacetyl)-S-methylsulfonimidoyl)phenyl)-4-(trifluoromethyl)benzamide]
- pIC50 [5]: 7.30 to 8.30
- pIC50 [6]: 7.30 to 8.30

SMILES: Cc1nc(F)ccc1Oc1c(C2CC2)ncc(F)c1C(=O)Nc1cccc([S@](C)(=N)=O)c1 [Example 37C, (R)-2-cyclopropyl-5-fluoro-3-((6-fluoro-2-methylpyridin-3-yl)oxy)-N-(3-(S-methylsulfonimidoyl)phenyl)isonicotinamide]
- pIC50 [9]: < 6.70
- pIC50 [10]: < 6.70

SMILES: Cc1nc(F)ccc1Oc1nc2ccccc2cc1C(=O)Nc1ccnc([S@](C)(=N)=O)c1 [Example 93C]
- pIC50 [7]: 6.70 to 7.00
- pIC50 [8]: 6.70 to 7.00

SMILES: Cc1nc(F)ccc1Oc1ccc(C(F)(F)F)c(C)c1C(=O)Nc1cccc([S@](C)(=N)=O)c1 [Example 3A, (R)-6-((6-fluoro-2-methylpyridin-3-yl)oxy)-2-methyl-N-(3-(S-methylsulfonimidoyl)phenyl)-3-(trifluoromethyl)benzamide]
- pIC50 [3]: > 8.30
- pIC50 [4]: > 8.30

SMILES: Cc1nc(F)ccc1Oc1cc(C(F)(F)F)c(Cl)cc1C(=O)Nc1cccc([S@@](C)(=O)=NC(=O)[C@@H](C)N)c1 [Example 5B, N-(3-((R)—N-(D-alanyl)-S-methylsulfonimidoyl)phenyl)-5-chloro-2-((6-fluoro-2-methylpyridin-3-yl)oxy)-4-(trifluoromethyl)benzamide]
- pIC50 [5]: > 8.30
- pIC50 [6]: > 8.30

SMILES: Cc1nc(F)ccc1Oc1ncc(C(F)(F)F)c(C)c1C(=O)Nc1cccc([S@@](C)(=O)=NCCN(C)C)c1 [Example 91C]
- pIC50 [7]: > 8.30
- pIC50 [8]: > 8.30

SMILES: Cc1nc(F)ccc1Oc1cnc(C(F)(F)F)c(Cl)c1C(=O)Nc1cccc([S@](C)(=N)=O)c1 [Example 45C, (R)-3-chloro-5-((6-fluoro-2-methylpyridin-3-yl)oxy)-N-(3-(S-methylsulfonimidoyl)phenyl)-2-(trifluoromethyl)isonicotinamide]
- pIC50 [9]: > 8.30
- pIC50 [10]: > 8.30

SMILES: Cc1nc(F)ccc1Oc1ccc(C(F)(F)F)c(F)c1C(=O)Nc1cccc([S@@](C)(=O)=NC(=O)[C@H](C)O)c1 [Example 18B, 2-fluoro-6-((6-fluoro-2-methylpyridin-3-yl)oxy)-N-(3-((R)—N—((S)-2-hydroxypropanoyl)-S-methylsulfonimidoyl)phenyl)-3-(trifluoromethyl)benzamide]
- pIC50 [5]: > 8.30
- pIC50 [6]: > 8.30

SMILES: Cc1nc(F)ccc1Oc1nnc(C(F)(F)F)c(C)c1C(=O)Nc1cccc([S@@](C)(=O)=NC(=O)CN2CC(F)(F)C2)c1 [Example 28D, (R)—N-(3-(N-(2-(3,3-difluoroazetidin-1-yl)acetyl)-S-methylsulfonimidoyl)phenyl)-3-((6-fluoro-2-methylpyridin-3-yl)oxy)-5-methyl-6-(trifluoromethyl)pyridazine-4-carboxamide]
- pIC50 [1]: > 8.30
- pIC50 [2]: > 8.30

SMILES: C[S@@](=N)(=O)c1cccc(NC(=O)c2c(Oc3ccc(OC(F)(F)F)cc3)cc(C(F)(F)F)c(Cl)c2F)c1 [Example 50A]
- pIC50 [3]: > 8.30
- pIC50 [4]: > 8.30

SMILES: Cc1nc(F)ccc1Oc1ncc(C(F)(F)F)c(C)c1C(=O)Nc1cccc([S@@](C)(=O)=NCCN)c1 [Example 43C, (R)—N-(3-(N-(2-aminoethyl)-S-methylsulfonimidoyl)phenyl)-2-((6-fluoro-2-methylpyridin-3-yl)oxy)-4-methyl-5-(trifluoromethyl)nicotinamide]
- pIC50 [7]: > 8.30
- pIC50 [8]: > 8.30

SMILES: Cc1nc(F)ccc1Oc1ncc(C(F)(F)F)c(C)c1C(=O)Nc1ccc(F)c([S@](C)(=N)=O)c1 (single isomer, unassigned) [Example 15C]
- pIC50 [7]: 7.30 to 8.30
- pIC50 [8]: 7.30 to 8.30

SMILES: Cc1nc(F)ccc1Oc1nc(C(F)(F)F)c(C#N)c(C)c1C(=O)Nc1cccc([S@](C)(=N)=O)c1 [Example 113C]
- pIC50 [7]: 7.30 to 8.30
- pIC50 [8]: 7.30 to 8.30

SMILES: Cc1nc(F)ccc1Oc1ncc(C(F)(F)F)c(C)c1C(=O)Nc1cccc(S(C)(=O)=O)c1 [Example 123C]
- pIC50 [7]: > 8.30
- pIC50 [8]: > 8.30

SMILES: COc1cc(C#N)ccc1Oc1ncc(-c2ccc(C(F)F)cc2)c(C)c1C(=O)Nc1cccc([S@](C)(=N)=O)c1 [Example 23C, (R)-2-(4-cyano-2-methoxyphenoxy)-5-(4-(difluoromethyl)phenyl)-4-methyl-N-(3-(S-methylsulfonimidoyl)phenyl)nicotinamide]
- pIC50 [7]: > 8.30
- pIC50 [8]: > 8.30
